Experiments:
SARS-CoV-2 [1] = assay: microbe, parasite or virus in culture; conditions: Severe acute respiratory syndrome coronavirus 2, 2019-nCoV, Vero C1008
SARS-CoV-2 [2] = assay: microbe, parasite or virus in culture; conditions: Severe acute respiratory syndrome coronavirus 2, Omicron BA.1, Vero C1008

Row | SMILES | EC50 (SARS-CoV-2 [1]) | EC50 (SARS-CoV-2 [2])
1 | CC(c1nc(-c2ccc(-c3ccc(C(=O)O)s3)cc2)no1)c1cccc2ccccc12 (centres undefined) | 5.4 µM | 25.2 µM
2 | Cc1ccc(-c2noc(C(C)c3ccc(-c4ccccc4)c(F)c3)n2)cc1NCc1ccc(C(=O)O)s1 (racemic) | 4.3 µM | 79.8 µM
